We go through 33 compounds from patent US10344017B2, “Pyrrolcarboxamide derivatives for the inhibition of ERK5” (CANCER RESEARCH TECHNOLOGY LIMITED, priority 2014, dated 2019).

pIC50: −log10 of the molar value.

The target of this test is T1, ERK5 (Homo sapiens, UniProt Q13164).
T1 construct: made in house
T1 sequence (Q13164 whole entry): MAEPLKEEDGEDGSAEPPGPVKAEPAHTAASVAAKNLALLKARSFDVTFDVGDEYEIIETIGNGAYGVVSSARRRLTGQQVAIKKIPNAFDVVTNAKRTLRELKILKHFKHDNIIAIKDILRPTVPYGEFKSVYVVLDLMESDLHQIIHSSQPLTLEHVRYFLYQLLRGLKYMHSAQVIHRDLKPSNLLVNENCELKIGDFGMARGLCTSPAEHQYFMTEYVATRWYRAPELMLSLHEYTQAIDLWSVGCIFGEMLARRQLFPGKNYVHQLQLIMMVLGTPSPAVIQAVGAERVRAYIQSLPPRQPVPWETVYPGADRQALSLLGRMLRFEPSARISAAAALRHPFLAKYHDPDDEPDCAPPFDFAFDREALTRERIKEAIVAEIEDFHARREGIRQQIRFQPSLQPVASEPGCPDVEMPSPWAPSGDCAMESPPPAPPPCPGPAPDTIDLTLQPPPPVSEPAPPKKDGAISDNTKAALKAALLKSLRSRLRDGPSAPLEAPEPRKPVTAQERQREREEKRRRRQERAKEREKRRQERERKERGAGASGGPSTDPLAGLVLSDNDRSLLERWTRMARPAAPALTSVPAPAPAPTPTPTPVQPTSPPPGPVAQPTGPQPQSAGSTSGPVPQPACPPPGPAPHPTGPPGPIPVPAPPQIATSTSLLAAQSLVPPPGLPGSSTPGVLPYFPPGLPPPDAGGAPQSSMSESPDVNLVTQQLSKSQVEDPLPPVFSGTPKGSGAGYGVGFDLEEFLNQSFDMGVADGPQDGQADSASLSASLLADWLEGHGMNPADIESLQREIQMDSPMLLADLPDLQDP
Put plainly: ERK5 IMAP assay (fluorescence polarisation). To be noted: average (e.g. geometric mean) where more than one data point; read-out: ERK5 IC50. It counts as biochemical. How it is done: The assay buffer was prepared using 0.01% Tween®-20 5× stock, supplied as part of IMAP™ FP Progressive Binding System Kit (Molecular Devices R7436) and diluted to 1× using miliQ H2O. 1 μL of a 1M DTT stock was added for every 1 mL of 1× assay buffer to give a final concentration of 1 mM DTT.
ERK5 was expressed and purified at CRT-DL by Leon Pang and Sue Young. Aliquots were stored at −80° C. The ERK5 working solution was used at a […] final dilution in assay buffer. […] For 1 plate, […] of ERK5 stock was added to 2262 μL of 1× assay buffer.
To prepare the IMAP™ binding solution for one plate 20.5 μL of IMAP™ binding reagent stock, 1476 μL of 1× binding buffer A (60%), and 984 μL of binding buffer B (40%) (IMAP™ FP Progressive screening express kit (Molecular Devices R8127) was added to 9819.5 μL of milliQ H2O.
1 μL of inhibitor (in 60:40 H2O/DMSO) or 60:40 H2O/DMSO (for controls and blanks) were dry-spotted into the relevant wells of a 384-well assay plate using the MATRIX PlateMate® Plus. 5 μL of ERK5 working solution was added to test and control wells, and 5 μL of 1× assay buffer added to blanks; 4 μL of ATP/substrate working solution was added to all wells using a Matrix multichannel pipette. The plate was sealed using DMSO resistant clear seal and incubated for 2 h at 37° C. 1 μL of the kinase reaction mixture from the first plate was dry spotted into a second 384-well assay plate using the MATRIX PlateMate® Plus. 9 μL of assay buffer was added, followed by 30 μL of IMAP™ binding solution using a multichannel pipette. The plate was incubated at RT in darkness for 2 h. The assay plate was then read on an Analyst HT plate reader (Molecular Devices) using the settings described below: […]
For orientation: Polarisation of emitted light reports the rotation of a fluorescent probe.
For `O=C(Nc1cccnc1)c1cc(C(=O)c2cc(Cl)ccc2F)c[nH]1` [Example 228, 4-(5-Chloro-2-fluorobenzoyl)-N-(pyridin-3-yl)-1H-pyrrole-2-carboxamide], the pIC50 (usually the negative decadic logarithm of the IC50, by convention in mol/L) is 5.62.

In the case of `COc1ccc(Cl)c(C(=O)c2c[nH]c(C(=O)Nc3cnn(Cc4cccnc4)c3)c2)c1F` [Example 66, 4-(6-Chloro-2-fluoro-3-methoxybenzoyl)-N-(1-(pyridin-3-ylmethyl)-1H-pyrazol-4-yl)-1H-pyrrole-2-carboxamide], the negative-log IC50 (pIC50) was 7.78.

Turning to `COc1ccc(Cl)c(C(=O)c2c[nH]c(C(=O)Nc3cncnc3)c2)c1F` [Example 74, 4-(6-chloro-2-fluoro-3-methoxybenzoyl)-N-(pyrimidin-5-yl)-1H-pyrrole-2-carboxamide], the negative-log IC50 (pIC50) was 6.69.

With `O=C(Nc1cnn(C2COC2)c1)c1cc(C(=O)c2c(Cl)ccc(Cl)c2F)c[nH]1` [Example 239, 4-(3,6-Dichloro-2-fluorobenzoyl)-N-(1-(oxetan-3-yl)-1H-pyrazol-4-yl)-1H-pyrrole-2-carboxamide], the pIC50 was 7.06.

With `COc1ccc(Cl)c(C(=O)c2c[nH]c(C(=O)Nc3cnc(CC4CCN(C)CC4)nc3)c2)c1F` [Example 247, 4-(6-Chloro-2-fluoro-3-methoxybenzoyl)-N-(2-((1-methylpiperidin-4-yl)methyl)pyrimidin-5-yl)-1H-pyrrole-2-carboxamide], the pIC50 was 7.74.

Turning to `Cc1cc(NC(=O)c2cc(C(=O)c3c(F)cccc3Br)c[nH]2)ccn1` [Example 137, 4-(2-Bromo-6-fluorobenzoyl)-N-(2-methylpyridin-4-yl)-1H-pyrrole-2-carboxamide], the negative logarithm of the IC50 (pIC50) was 5.97.

For `COc1ccc(Cl)c(C(=O)c2c[nH]c(C(=O)Nc3cnc(CN4CCOCC4)nc3)c2)c1F` [Example 243, 4-(6-Chloro-2-fluoro-3-methoxybenzoyl)-N-(2-(morpholinomethyl)pyrimidin-5-yl)-1H-pyrrole-2-carboxomide], the pIC50 is 6.89.

As to `O=C(Nc1cccnc1N1CCCC1)c1cc(C(=O)c2c(F)cccc2Cl)c[nH]1` [Example 80, 4-(2-Chloro-6-fluorobenzoyl)-N-(2-(pyrrolidin-1-yl)pyridin-3-yl)-1H-pyrrole-2-carboxamide], the negative-log IC50 (pIC50) was 5.10.

Consider `Cc1ccc(F)c(C(=O)c2c[nH]c(C(=O)NC3CCNCC3)c2)c1F` [Example 219, 4-(2,6-Difluoro-3-methylbenzoyl)-N-(piperidin-4-yl)-1H-pyrrole-2-carboxamide], for which the pIC50 was 6.20.

With `Cc1cc(NC(=O)c2cc(C(=O)c3c(F)cccc3Cl)c[nH]2)ccn1` [Example 136, 4-(2-Chloro-6-fluorobenzoyl)-N-(2-methylpyridin-4-yl)-1H-pyrrole-2-carboxamide], the pIC50 was 6.40.

For `O=C(Nc1cnc(N2CCC(O)CC2)nc1)c1cc(C(=O)c2c(F)cccc2Cl)c[nH]1` [Example 28, 4-(2-Chloro-6-fluorobenzoyl)-N-(2-(4-hydroxypiperidin-1-yl)pyrimidin-5-yl)-1H-pyrrole-2-carboxamide], the pIC50 was 5.65.

As for `CS(=O)(=O)CCNc1ncc(NC(=O)c2cc(C(=O)c3c(Cl)ccc(Cl)c3F)c[nH]2)cn1` [Example 101, 4-(3,6-Dichloro-2-fluorobenzoyl)-N-(2-((2-(methylsulfonyl)ethyl)amino)pyrimidin-5-yl)-1H-pyrrole-2-carboxamide], the pIC50 is 6.94.

On to `O=C(Nc1ccncn1)c1cc(C(=O)c2c(F)cccc2Cl)c[nH]1` [Example 132, 4-(2-Chloro-6-fluorobenzoyl)-N-(pyrimidin-4-yl)-1H-pyrrole-2-carboxamide], for which the pIC50 was 5.94.

Regarding `CS(=O)(=O)CCNc1ccc(NC(=O)c2cc(C(=O)c3c(Cl)ccc(Cl)c3F)c[nH]2)cn1` [Example 263, 4-(3,6-Dichloro-2-fluorobenzoyl)-N-(6-((2-(methylsulfonyl)ethyl)amino)pyridin-3-yl)-1H-pyrrole-2-carboxamide], the pIC50 was 6.67.

As for `Cc1ccc(F)c(C(=O)c2c[nH]c(C(=O)Nc3cccnc3)c2)c1` [Example 232, 4-(2-Fluoro-5-methylbenzoyl)-N-(pyridin-3-yl)-1H-pyrrole-2-carboxamide], the pIC50 is 5.39.

Turning to `Cc1ccc(NC(=O)c2cc(C(=O)c3c(F)cccc3Cl)c[nH]2)cn1` [Example 150, 4-(2-Chloro-6-fluorobenzoyl)-N-(6-methylpyridin-3-yl)-1H-pyrrole-2-carboxamide], the pIC50 was 5.99.

Consider `O=C(Nc1ccnc(Cl)c1)c1cc(C(=O)c2c(F)cccc2Cl)c[nH]1` [Example 34, 4-(2-Chloro-6-fluorobenzoyl)-N-(2-chloropyridin-4-yl)-1H-pyrrole-2-carboxamide], for which the pIC50 is 5.63.

For the compound `O=C(Nc1cnc(CN2CCOCC2)nc1)c1cc(C(=O)c2c(Cl)ccc(Cl)c2F)c[nH]1` [Example 242, 4-(3,6-Dichloro-2-fluorobenzoyl)-N-(2-(morpholinomethyl)pyrimidin-5-yl)-1H-pyrrole-2-carboxamide], the pIC50 is 7.28.

As for `CCc1ccc(F)c(C(=O)c2c[nH]c(C(=O)Nc3cccnc3)c2)c1F` [Example 162], the pIC50 was 5.88.

As to `Cc1cccc(F)c1C(=O)c1c[nH]c(C(=O)Nc2ccncc2)c1` [Example 185, 4-(2-Fluoro-6-methylbenzoyl)-N-(pyridin-4-yl)-1H-pyrrole-2-carboxamide], the pIC50 was 5.72.

As to `O=C(Nc1cccnc1)c1cc(C(=O)c2c(F)ccc(F)c2F)c[nH]1` [Example 206, N-(Pyridin-3-yl)-4-(2,3,6-trifluorobenzoyl)-1H-pyrrole-2-carboxamide], the negative logarithm of the IC50 (pIC50) is 6.40.

For `O=C(Nc1cnccc1N1CCCC1)c1cc(C(=O)c2c(F)cccc2Cl)c[nH]1` [Example 92, 4-(2-Chloro-6-fluorobenzoyl)-N-(4-(pyrrolidin-1-yl)pyridin-3-yl)-1H-pyrrole-2-carboxamide], the pIC50 was 4.78.

`Cc1cc(NC(=O)c2cc(C(=O)c3c(F)cccc3Cl)c[nH]2)cc(C)n1` [Example 134, 4-(2-Chloro-6-fluorobenzoyl)-N-(2,6-dimethylpyridin-4-yl)-1H-pyrrole-2-carboxamide]: the negative-log IC50 (pIC50) is 6.43.

For `CS(=O)(=O)CCn1cc(NC(=O)c2cc(C(=O)c3c(Cl)ccc(Cl)c3F)c[nH]2)cn1` [Example 238, 4-(3,6-Dichloro-2-fluorobenzoyl)-N-(1-(2-(methylsulfonyl)ethyl)-1H-pyrazol-4-yl)-1H-pyrrole-2-carboxamide], the pIC50 was 6.93.

Consider `O=C(Nc1cncnc1)c1cc(C(=O)c2c(F)ccc(F)c2F)c[nH]1` [Example 207, N-(Pyrimidin-5-yl)-4-(2,3,6-trifluorobenzoyl)-1H-pyrrole-2-carboxamide], for which the pIC50 is 5.97.

For `O=C(Nc1ccnnc1)c1cc(C(=O)c2c(F)cccc2Br)c[nH]1` [Example 139, 4-(2-Bromo-6-fluorobenzoyl)-N-(pyridazin-4-yl)-1H-pyrrole-2-carboxamide], the pIC50 was 6.09.

For the compound `O=Cc1ccc(F)c(C(=O)c2c[nH]c(C(=O)Nc3cccnc3)c2)c1F` [Example 265, 4-(2,6-difluoro-3-formylbenzoyl)-N-(pyridin-3-yl)-1H-pyrrole-2-carboxamide], the pIC50 is 5.13.

In the case of `COc1ccc(F)c(C(=O)c2c[nH]c(C(=O)NC3CCN(C)CC3)c2)c1Cl` [Example 71, 4-(2-chloro-6-fluoro-3-methoxybenzoyl)-N-(1-methylpiperidin-4-yl)-1H-pyrrole-2-carboxamide], the pIC50 is 6.76.

Consider `O=C(Nc1cncnc1)c1cc(C(=O)c2c(Cl)ccc(F)c2F)c[nH]1` [Example 222, 4-(6-Chloro-2,3-difluorobenzoyl)-N-(pyrimidin-5-yl)-1H-pyrrole-2-carboxamide], for which the pIC50 was 6.26.

Consider `CN1CCC(N(C)c2ncc(NC(=O)c3cc(C(=O)c4c(Cl)ccc(Cl)c4F)c[nH]3)cn2)CC1` [Example 105, 4-(3,6-Dichloro-2-fluorobenzoyl)-N-(2-(methyl(1-methylpiperidin-4-yl)amino)pyrimidin-5-yl)-1H-pyrrole-2-carboxamide], for which the negative-log IC50 (pIC50) was 7.68.

For `CCc1cccc(F)c1C(=O)c1c[nH]c(C(=O)NC2CCN(C)CC2)c1` [Example 201, 4-(2-Ethyl-6-fluorobenzoyl)-N-(1-methylpiperidin-4-yl)-1H-pyrrole-2-carboxamide], the negative logarithm of the IC50 (pIC50) was 5.30.

On to `COc1ccc(Cl)c(C(=O)c2c[nH]c(C(=O)Nc3cnn(C)c3)c2)c1F` [Example 62, 4-(6-Chloro-2-fluoro-3-methoxybenzoyl)-N-(1-methyl-1H-pyrazol-4-yl)-1H-pyrrole-2-carboxamide], for which the pIC50 is 7.07.

As to `O=C(Nc1cnc(N2CCC(O)CC2)nc1)c1cc(C(=O)c2c(Cl)ccc(Cl)c2F)c[nH]1` [Example 29, 4-(3,6-Dichloro-2-fluorobenzoyl)-N-(2-(4-hydroxypiperidin-1-yl)pyrimidin-5-yl)-1H-pyrrole-2-carboxamide], the pIC50 was 6.27.
